The values below come from patent publication US20250213555A1, “SUBSTITUTED TETRAHYDROFURAN ANALOGS AS MODULATORS OF SODIUM CHANNELS” (VERTEX PHARMACEUTICALS INCORPORATED, priority 2021, published 2025).

SMILES strings stand for the structures.

human Nav 1.8, sequence (Q9Y5Y9 126-399 limits assumed): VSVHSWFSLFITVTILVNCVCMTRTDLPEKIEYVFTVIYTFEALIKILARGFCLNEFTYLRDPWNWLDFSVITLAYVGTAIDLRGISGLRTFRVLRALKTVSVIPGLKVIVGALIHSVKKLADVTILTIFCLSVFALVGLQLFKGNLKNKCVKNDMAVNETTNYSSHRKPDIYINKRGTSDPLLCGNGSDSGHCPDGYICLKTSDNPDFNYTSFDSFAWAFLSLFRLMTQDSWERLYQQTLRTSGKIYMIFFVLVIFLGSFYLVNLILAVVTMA
human Nav 1.8, sequence (Q9Y5Y9 660-890 limits assumed): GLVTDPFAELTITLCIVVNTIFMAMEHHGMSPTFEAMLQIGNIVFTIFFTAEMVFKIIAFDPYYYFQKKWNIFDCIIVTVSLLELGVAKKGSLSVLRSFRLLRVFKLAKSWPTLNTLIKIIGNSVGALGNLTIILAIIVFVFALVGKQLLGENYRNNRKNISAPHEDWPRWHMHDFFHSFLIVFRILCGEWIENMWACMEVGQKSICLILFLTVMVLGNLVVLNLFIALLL
human Nav 1.8, sequence (Q9Y5Y9 1148-1722 limits assumed): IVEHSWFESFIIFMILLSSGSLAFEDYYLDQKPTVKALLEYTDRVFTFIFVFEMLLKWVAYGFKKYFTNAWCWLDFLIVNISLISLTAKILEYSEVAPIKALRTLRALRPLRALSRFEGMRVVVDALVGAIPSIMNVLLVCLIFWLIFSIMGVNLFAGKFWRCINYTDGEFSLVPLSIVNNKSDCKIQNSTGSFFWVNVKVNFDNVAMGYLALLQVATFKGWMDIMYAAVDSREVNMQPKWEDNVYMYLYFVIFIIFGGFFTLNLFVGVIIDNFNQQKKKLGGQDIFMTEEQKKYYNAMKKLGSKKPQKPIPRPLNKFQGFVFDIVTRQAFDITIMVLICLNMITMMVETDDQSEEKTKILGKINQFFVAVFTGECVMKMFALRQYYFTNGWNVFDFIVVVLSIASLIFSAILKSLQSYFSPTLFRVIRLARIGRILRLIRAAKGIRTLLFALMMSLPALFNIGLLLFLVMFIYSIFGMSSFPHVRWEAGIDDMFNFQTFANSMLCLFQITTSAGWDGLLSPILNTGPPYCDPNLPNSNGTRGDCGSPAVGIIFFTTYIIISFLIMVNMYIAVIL

This test has as its target human Nav 1.8 (Homo sapiens, UniProt Q9Y5Y9). In words: E-VIPR assay detecting and measuring Nav inhibition properties. The note with it: HEK cells expressing a truncated form of human Nav 1.8; compound numbers without "*" (not marked as run in the presence of human serum); read-out: measured IC50 value in the E-VIPR Assay. It counts as cell-based. An outline of the steps:
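Nav inhibition was read by E-VIPR: cells were electrically stimulated while coumarin/oxonol FRET emissions were recorded. Cells were HEK expressing a truncated human Nav 1.8 and co-transduced with KIR2.1, and were assayed in 25% final human serum.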
A word on the IC50: it is the concentration at which inhibition is half-maximal. `CC1C(c2ccc(F)c(F)c2OCC2CC(C)(O)C2)C(C(=O)Nc2ccnc(C(N)=O)c2)OC1(C)C(F)(F)F` [Compound 199, rel-4-((2R*,3S*,4S*,5R*)-3-(3,4-difluoro-2-(((1r,3S)-3-hydroxy-3-methylcyclobutyl)methoxy)phenyl)-4,5-dimethyl-5-(trifluoromethyl)tetrahydrofuran-2-carboxamido)picolinamide]: the IC50 was in the range of 10 to 100 nM. With `CNC(=O)c1cc(NC(=O)[C@@H]2O[C@@](C)(C(F)(F)F)[C@@H](C)[C@H]2c2ccc(F)c(F)c2O[C@H]2C[C@@H](O)C2)ccn1` [Compound 201] the figure was 10 to 100 nM; with `C[C@H]1[C@@H](c2ccc(F)c(F)c2O[C@H]2C[C@@H](O)C2)[C@H](C(=O)Nc2ccc(F)c(C(N)=O)c2)O[C@@]1(C)C(F)(F)F` [Compound 202], below 10 nM; with `Cc1cnc(C(N)=O)cc1NC(=O)C1OC(C)(C(F)(F)F)C(C)C1c1ccc(F)c(F)c1OC1CC(O)C1` (stereo not shown) [Compound 203], 10 to 100 nM. With `C[C@H]1[C@@H](c2ccc(F)c(F)c2OC2CC3(CC(O)C3)C2)[C@H](C(=O)Nc2ccnc(C(N)=O)c2)O[C@@]1(C)C(F)(F)F` (stereo partly drawn) [Compound 204, 4-((2R,3S,4S,5R)-3-(3,4-difluoro-2-((6-hydroxyspiro[3.3]heptan-2-yl)oxy)phenyl)-4,5-dimethyl-5-(trifluoromethyl)tetrahydrofuran-2-carboxamido)picolinamide] the figure was 100 to 1000 nM; with `COc1c([C@H]2[C@H](C(=O)Nc3ccnc(C(N)=O)c3)O[C@@](C)(C(F)(F)F)[C@H]2C)ccc(O)c1F` [Compound 206, 4-((2R,3S,4S,5R)-3-(3-fluoro-4-hydroxy-2-methoxyphenyl)-4,5-dimethyl-5-(trifluoromethyl)tetrahydrofuran-2-carboxamido) picolinamide], 10 to 100 nM; with `COc1c([C@H]2[C@H](C(=O)Nc3ccnc(C(N)=O)c3)O[C@@](C)(C(F)(F)F)[C@H]2C)ccc(OC2CC(F)(F)C2)c1F` [Compound 207, 4-((2R,3S,4S,5R)-3-(4-(3,3-difluorocyclobutoxy)-3-fluoro-2-methoxyphenyl)-4,5-dimethyl-5-(trifluoromethyl)tetrahydrofuran-2-carboxamido) picolinamide], below 10 nM. Regarding `C[C@H]1[C@@H](c2ccc(C(F)F)nc2OCCO)[C@H](C(=O)Nc2ccnc(C(N)=O)c2)O[C@@]1(C)C(F)(F)F` [Compound 208, 4-((2R,3S,4S,5R)-3-(6-(difluoromethyl)-2-(2-hydroxyethoxy)pyridin-3-yl)-4,5-dimethyl-5-(trifluoromethyl)tetrahydrofuran-2-carboxamido) picolinamide], the IC50 was in the range of 100 to 1000 nM. With `C[C@H]1[C@@H](c2ccc(F)c(F)c2COC2COC2)[C@H](C(=O)Nc2ccnc(C(N)=O)c2)O[C@@]1(C)C(F)(F)F` [Compound 211, 4-((2R,3S,4S,5R)-3-(3,4-difluoro-2-((oxetan-3-yloxy)methyl)phenyl)-4,5-dimethyl-5-(trifluoromethyl)tetrahydrofuran-2-carboxamido) picolinamide] the figure was below 10 nM; with `C[C@H]1[C@@H](c2cccc(C(F)(F)F)c2O[C@H]2C[C@@H](O)C2)[C@H](C(=O)Nc2ccnc(C(N)=O)c2)O[C@@]1(C)C(F)(F)F` [Compound 212, 4-((2R,3S,4S,5R)-3-(2-((1s,3R)-3-hydroxycyclobutoxy)-3-(trifluoromethyl)phenyl)-4,5-dimethyl-5-(trifluoromethyl)tetrahydrofuran-2-carboxamido) picolinamide], below 10 nM; with `C[C@H]1[C@@H](c2cccc(Cl)c2O[C@H]2C[C@@H](O)C2)[C@H](C(=O)Nc2ccnc(C(N)=O)c2)O[C@@]1(C)C(F)(F)F` [Compound 213, 4-((2R,3S,4S,5R)-3-(3-chloro-2-((1s,3R)-3-hydroxycyclobutoxy)phenyl)-4,5-dimethyl-5-(trifluoromethyl)tetrahydrofuran-2-carboxamido) picolinamide], below 10 nM. With `COc1c([C@H]2[C@H](C(=O)Nc3ccnc(C(=O)O)c3)O[C@@](C)(C(F)(F)F)[C@H]2C)ccc(F)c1F` [Compound 214, 4-((2R,3S,4S,5R)-3-(3,4-difluoro-2-methoxyphenyl)-4,5-dimethyl-5-(trifluoromethyl)tetrahydrofuran-2-carboxamido)picolinic acid] the figure was 10 to 100 nM; with `COc1c([C@H]2[C@H](C(=O)Nc3ccnc(C(=O)N4CC5(CCN5)C4)c3)O[C@@](C)(C(F)(F)F)[C@H]2C)ccc(F)c1F` [Compound 215, (2R,3S,4S,5R)—N-(2-(1,6-diazaspiro[3.3]heptane-6-carbonyl)pyridin-4-yl)-3-(3,4-difluoro-2-methoxyphenyl)-4,5-dimethyl-5-(trifluoromethyl)tetrahydrofuran-2-carboxamide], below 10 nM; with `COc1c([C@H]2[C@H](C(=O)Nc3ccnc(C(=O)N4CC5(CCN5C)C4)c3)O[C@@](C)(C(F)(F)F)[C@H]2C)ccc(F)c1F` [Compound 216, (2R,3S,4S,5R)-3-(3,4-difluoro-2-methoxyphenyl)-4,5-dimethyl-N-(2-(1-methyl-1,6-diazaspiro[3.3]heptane-6-carbonyl)pyridin-4-yl)-5-(trifluoromethyl)tetrahydrofuran-2-carboxamide], below 10 nM. For `COc1c([C@H]2[C@H](C(=O)Nc3ccnc(C(=O)N(C)O)c3)O[C@@](C)(C(F)(F)F)[C@H]2C)ccc(F)c1F` [Compound 217, 4-((2R,3S,4S,5R)-3-(3,4-difluoro-2-methoxyphenyl)-4,5-dimethyl-5-(trifluoromethyl)tetrahydrofuran-2-carboxamido)-N-hydroxy-N-methylpicolinamide], the IC50 was below 10 nM. As to `COc1c([C@H]2[C@H](C(=O)Nc3ccnc(C(=O)N4CC5CC(C4)O5)c3)O[C@@](C)(C(F)(F)F)[C@H]2C)ccc(F)c1F` [Compound 218, (2R,3S,4S,5R)-N-(2-(6-oxa-3-azabicyclo[3.1.1]heptane-3-carbonyl)pyridin-4-yl)-3-(3,4-difluoro-2-methoxyphenyl)-4,5-dimethyl-5-(trifluoromethyl)tetrahydrofuran-2-carboxamide], the concentration for half-maximal inhibition (IC50) was below 10 nM.

For `COc1c([C@H]2[C@H](C(=O)Nc3ccnc(C(=O)N4CC[C@H](O)C4)c3)O[C@@](C)(C(F)(F)F)[C@H]2C)ccc(F)c1F` [Compound 219, (2R,3S,4S,5R)-3-(3,4-difluoro-2-methoxyphenyl)-N-(2-((S)-3-hydroxypyrrolidine-1-carbonyl)pyridin-4-yl)-4,5-dimethyl-5-(trifluoromethyl)tetrahydrofuran-2-carboxamide], the IC50 was below 10 nM. For `COc1c([C@H]2[C@H](C(=O)Nc3ccnc(C(=O)N4CC[C@@H](O)C4)c3)O[C@@](C)(C(F)(F)F)[C@H]2C)ccc(F)c1F` [Compound 220, (2R,3S,4S,5R)-3-(3,4-difluoro-2-methoxyphenyl)-N-(2-((R)-3-hydroxypyrrolidine-1-carbonyl)pyridin-4-yl)-4,5-dimethyl-5-(trifluoromethyl)tetrahydrofuran-2-carboxamide] the value was below 10 nM; for `COc1c([C@H]2[C@H](C(=O)Nc3ccnc(C(=O)NCCO)c3)O[C@@](C)(C(F)(F)F)[C@H]2C)ccc(F)c1F` [Compound 221, 4-((2R,3S,4S,5R)-3-(3,4-difluoro-2-methoxyphenyl)-4,5-dimethyl-5-(trifluoromethyl)tetrahydrofuran-2-carboxamido)-N-(2-hydroxyethyl)picolinamide], below 10 nM; for `COc1c([C@H]2[C@H](C(=O)Nc3ccnc(C(=O)N4CCNCC4)c3)O[C@@](C)(C(F)(F)F)[C@H]2C)ccc(F)c1F` [Compound 224, (2R,3S,4S,5R)-3-(3,4-difluoro-2-methoxyphenyl)-4,5-dimethyl-N-(2-(piperazine-1-carbonyl)pyridin-4-yl)-5-(trifluoromethyl)tetrahydrofuran-2-carboxamide], below 10 nM.

Consider `COc1c([C@H]2[C@H](C(=O)Nc3ccnc(C(=O)N4CCC45CNC5)c3)O[C@@](C)(C(F)(F)F)[C@H]2C)ccc(F)c1F` [Compound 225, (2R,3S,4S,5R)-N-(2-(1,6-diazaspiro[3.3]heptane-1-carbonyl)pyridin-4-yl)-3-(3,4-difluoro-2-methoxyphenyl)-4,5-dimethyl-5-(trifluoromethyl)tetrahydrofuran-2-carboxamide], for which the half-inhibitory concentration (IC50) fell in the range of 10 to 100 nM.

Turning to `COc1c([C@H]2[C@H](C(=O)Nc3ccnc(C(=O)NC[C@@H]4CC(F)(F)CN4)c3)O[C@@](C)(C(F)(F)F)[C@H]2C)ccc(F)c1F` [Compound 226, 4-((2R,3S,4S,5R)-3-(3,4-difluoro-2-methoxyphenyl)-4,5-dimethyl-5-(trifluoromethyl)tetrahydrofuran-2-carboxamido)-N-(((S)-4,4-difluoropyrrolidin-2-yl)methyl)picolinamide], the IC50 lay in the range of 100 to 1000 nM. With `COc1c([C@H]2[C@H](C(=O)Nc3ccnc(C(=O)N4C[C@H]5CCNC[C@H]54)c3)O[C@@](C)(C(F)(F)F)[C@H]2C)ccc(F)c1F` [Compound 227, (2R,3S,4S,5R)-N-(2-((1S,6R)-3,8-diazabicyclo[4.2.0]octane-8-carbonyl)pyridin-4-yl)-3-(3,4-difluoro-2-methoxyphenyl)-4,5-dimethyl-5-(trifluoromethyl)tetrahydrofuran-2-carboxamide] the figure was below 10 nM; with `COc1c([C@H]2[C@H](C(=O)Nc3ccnc(C(=O)N4CC5(CNC5)C4)c3)O[C@@](C)(C(F)(F)F)[C@H]2C)ccc(F)c1F` [Compound 228, (2R,3S,4S,5R)-N-(2-(2,6-diazaspiro[3.3]heptane-2-carbonyl)pyridin-4-yl)-3-(3,4-difluoro-2-methoxyphenyl)-4,5-dimethyl-5-(trifluoromethyl)tetrahydrofuran-2-carboxamide], below 10 nM. With `COc1c([C@H]2[C@H](C(=O)Nc3ccnc(C(=O)N(C)[C@@H]4CCNC4)c3)O[C@@](C)(C(F)(F)F)[C@H]2C)ccc(F)c1F` [Compound 229, 4-((2R,3S,4S,5R)-3-(3,4-difluoro-2-methoxyphenyl)-4,5-dimethyl-5-(trifluoromethyl)tetrahydrofuran-2-carboxamido)-N-methyl-N-((R)-pyrrolidin-3-yl)picolinamide] the figure was below 10 nM.
